Source: ChEMBL document CHEMBL4020807, “Synthesis of resveratrol derivatives as new analgesic drugs through desensitization of the TRPA1 receptor” (Bioorg Med Chem Lett, 2017)
pEC50, pIC50: −log10 of the molar value. Active and inactive are the calls of the source. No cut-off for these calls is given here.

Key:
[1] = target: T1, Transient receptor potential cation channel subfamily A member 1 (Homo sapiens, UniProt O75762); assay: Inhibition of human TRPA1 expressed in HEK293 cells assessed as decrease in AITC-induced calcium influx at 30 uM preincubated for 6 mins followed by AITC addition measured for 1 min by Fluo-4 dye-based assay relative to resveratrol; type: cell-based
[2] = target: T1, Transient receptor potential cation channel subfamily A member 1; assay: Agonist activity at human TRPA1 expressed in HEK293 cells assessed as induction of calcium influx at 30 uM after 6 mins by Fluo-4 dye-based assay relative to AITC; type: cell-based; conditions: hek293, 0.1 h
[3] = target: T1, Transient receptor potential cation channel subfamily A member 1; assay: Inhibition of human TRPA1 expressed in HEK293 cells assessed as decrease in AITC-induced calcium influx preincubated for 6 mins followed by AITC addition measured for 1 min by Fluo-4 dye-based assay; type: cell-based
[4] = target: T1, Transient receptor potential cation channel subfamily A member 1; assay: Inhibition of TRPA1 (unknown origin)
[5] = target: T1, Transient receptor potential cation channel subfamily A member 1; assay: Inhibition of human TRPA1 expressed in HEK293 cells assessed as decrease in AITC-induced calcium influx at 10 uM preincubated for 6 mins followed by AITC addition measured for 1 min by Fluo-4 dye-based assay relative to control; type: cell-based
[6] = target: T1, Transient receptor potential cation channel subfamily A member 1; assay: Agonist activity at human TRPA1 expressed in HEK293 cells assessed as induction of calcium influx at 30 uM after 6 mins by Fluo-4 dye-based assay; type: cell-based
[7] = target: T1, Transient receptor potential cation channel subfamily A member 1; assay: Inhibition of human TRPA1 expressed in HEK293 cells assessed as decrease in AITC-induced calcium influx at 3 uM preincubated for 6 mins followed by AITC addition measured for 1 min by Fluo-4 dye-based assay relative to control; type: cell-based
[8] = target: T1, Transient receptor potential cation channel subfamily A member 1; assay: Inhibition of human TRPA1 expressed in HEK293 cells assessed as decrease in AITC-induced calcium influx at 30 uM preincubated for 6 mins followed by AITC addition measured for 1 min by Fluo-4 dye-based assay relative to control; type: cell-based
[9] = target: T2, Transient receptor potential cation channel subfamily A member 1 (Rattus norvegicus, UniProt Q6RI86); assay: Activation of TRPA1 in Sprague-Dawley rat DRG neuron assessed as induction of current response at -60 mV holding potential at 300 uM incubated for 30 secs by whole-cell patch-clamp assay; conditions: 0.5 min
[10] = target: T2, Transient receptor potential cation channel subfamily A member 1; assay: Activation of TRPA1 in Sprague-Dawley rat DRG neuron assessed as induction of current response at -60 mV holding potential at 1 uM incubated for 30 secs by whole-cell patch-clamp assay; conditions: 0.5 min
[11] = target: T1, Transient receptor potential cation channel subfamily A member 1; assay: Inhibition of human TRPA1 expressed in HEK293 cells assessed as decrease in AITC-induced current response by whole cell patch clamp method; type: cell-based
[12] = target: T1, Transient receptor potential cation channel subfamily A member 1; assay: Desensitization of human TRPA1 expressed in HEK293 cells assessed as decrease in AITC-induced inward current response at -60 mV holding potential preincubated for 1 min followed by AITC induction for 1 min by whole-cell patch-clamp assay; type: cell-based
[13] = target: T1, Transient receptor potential cation channel subfamily A member 1; assay: Agonist activity at human TRPA1 expressed in HEK293 cells assessed as induction of inward current response at 10 uM in presence of TRPA1 antagonist HC-030031 by whole-cell patch-clamp assay; type: cell-based; conditions: hek293, 10 µM
[14] = target: T1, Transient receptor potential cation channel subfamily A member 1; assay: Agonist activity at human TRPA1 expressed in HEK293 cells assessed as induction of inward current response by whole-cell patch-clamp assay; type: cell-based
HEK293 = assay: Induction of current response in HEK293 cells at 10 uM by whole-cell patch-clamp assay; type: cell-based; conditions: human, hek293, 10 µM
[15] = target: T1, Transient receptor potential cation channel subfamily A member 1; assay: Activation of human TRPA1 expressed in HEK293 cells assessed as induction of inward current response at -60 mV holding potential at 5 uM incubated for 1 min by whole-cell patch-clamp assay; type: cell-based; conditions: hek293, 1 min
Rattus norvegicus [16] = assay: Induction of nocifensive behavior in Sprague-Dawley rat at 2 mM administered intraplantarly for 5 mins; conditions: in vivo, other, 2000 µM
[17] = target: T2, Transient receptor potential cation channel subfamily A member 1; assay: Activation of TRPA1 in Sprague-Dawley rat DRG neuron assessed as induction of current response at -60 mV holding potential at 30 uM incubated for 30 secs by whole-cell patch-clamp assay; conditions: 0.5 min
Rattus norvegicus [18] = assay: Antinociceptive activity in Sprague-Dawley rat assessed as decrease in paw-licking time at 2 mM administered intraplantarly for 5 mins followed by AITC addition measured for 5 mins; type: functional

T2 sequence (Q6RI86 whole entry): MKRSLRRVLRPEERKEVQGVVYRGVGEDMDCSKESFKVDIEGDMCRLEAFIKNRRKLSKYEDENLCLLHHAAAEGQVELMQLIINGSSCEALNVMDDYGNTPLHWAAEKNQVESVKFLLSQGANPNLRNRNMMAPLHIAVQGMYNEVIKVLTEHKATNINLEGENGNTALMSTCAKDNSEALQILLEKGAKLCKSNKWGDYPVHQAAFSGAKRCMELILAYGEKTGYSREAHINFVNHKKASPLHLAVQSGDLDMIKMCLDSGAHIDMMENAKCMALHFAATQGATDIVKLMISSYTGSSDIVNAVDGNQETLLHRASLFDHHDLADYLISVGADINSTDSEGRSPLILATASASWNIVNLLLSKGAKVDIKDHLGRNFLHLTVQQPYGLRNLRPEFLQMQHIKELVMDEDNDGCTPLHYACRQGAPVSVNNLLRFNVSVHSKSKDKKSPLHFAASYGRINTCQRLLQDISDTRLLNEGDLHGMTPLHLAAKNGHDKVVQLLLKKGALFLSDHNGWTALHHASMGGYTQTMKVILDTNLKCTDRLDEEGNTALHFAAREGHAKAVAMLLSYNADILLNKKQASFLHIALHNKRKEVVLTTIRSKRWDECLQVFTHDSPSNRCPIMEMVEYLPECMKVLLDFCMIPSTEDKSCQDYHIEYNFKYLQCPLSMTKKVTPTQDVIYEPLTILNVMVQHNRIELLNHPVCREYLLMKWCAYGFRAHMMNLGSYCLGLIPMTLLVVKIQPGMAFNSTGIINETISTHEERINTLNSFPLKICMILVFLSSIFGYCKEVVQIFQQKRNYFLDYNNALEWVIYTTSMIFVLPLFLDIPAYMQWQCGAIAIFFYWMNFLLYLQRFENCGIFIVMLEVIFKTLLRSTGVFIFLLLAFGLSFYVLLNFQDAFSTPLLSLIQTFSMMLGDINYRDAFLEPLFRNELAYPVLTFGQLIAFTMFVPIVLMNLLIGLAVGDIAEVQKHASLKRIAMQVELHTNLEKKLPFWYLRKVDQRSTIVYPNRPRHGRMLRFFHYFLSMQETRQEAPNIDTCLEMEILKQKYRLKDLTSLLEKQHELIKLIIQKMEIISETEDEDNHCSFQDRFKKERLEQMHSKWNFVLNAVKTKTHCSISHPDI
T1 sequence (O75762 whole entry): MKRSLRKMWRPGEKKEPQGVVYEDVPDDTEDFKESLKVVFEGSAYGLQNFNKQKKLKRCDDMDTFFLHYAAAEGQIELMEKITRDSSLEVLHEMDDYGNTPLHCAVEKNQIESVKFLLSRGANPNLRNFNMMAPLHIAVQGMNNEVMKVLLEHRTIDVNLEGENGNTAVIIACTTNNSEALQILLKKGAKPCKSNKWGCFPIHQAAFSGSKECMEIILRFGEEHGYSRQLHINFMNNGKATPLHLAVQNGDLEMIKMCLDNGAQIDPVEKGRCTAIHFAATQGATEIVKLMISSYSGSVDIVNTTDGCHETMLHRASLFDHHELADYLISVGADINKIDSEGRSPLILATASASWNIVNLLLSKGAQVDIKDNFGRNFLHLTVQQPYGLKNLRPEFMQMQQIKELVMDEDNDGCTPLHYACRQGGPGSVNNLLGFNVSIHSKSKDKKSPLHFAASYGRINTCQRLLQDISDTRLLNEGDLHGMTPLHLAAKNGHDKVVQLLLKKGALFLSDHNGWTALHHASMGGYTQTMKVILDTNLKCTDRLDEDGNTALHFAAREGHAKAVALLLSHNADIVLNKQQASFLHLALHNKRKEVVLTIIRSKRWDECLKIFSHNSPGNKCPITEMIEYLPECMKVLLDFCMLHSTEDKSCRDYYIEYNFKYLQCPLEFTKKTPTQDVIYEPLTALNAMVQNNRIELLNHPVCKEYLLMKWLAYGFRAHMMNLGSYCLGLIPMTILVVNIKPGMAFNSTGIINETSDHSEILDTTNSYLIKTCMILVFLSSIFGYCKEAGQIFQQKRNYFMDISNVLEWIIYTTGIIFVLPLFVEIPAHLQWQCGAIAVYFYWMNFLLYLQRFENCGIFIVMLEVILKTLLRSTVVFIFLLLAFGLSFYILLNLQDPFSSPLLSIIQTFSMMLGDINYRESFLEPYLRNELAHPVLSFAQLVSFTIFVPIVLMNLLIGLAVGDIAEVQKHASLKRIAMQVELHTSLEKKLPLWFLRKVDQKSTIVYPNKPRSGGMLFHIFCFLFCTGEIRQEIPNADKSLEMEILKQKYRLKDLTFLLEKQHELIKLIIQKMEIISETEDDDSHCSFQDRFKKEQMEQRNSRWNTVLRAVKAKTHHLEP

SMILES: COCOc1ccc(/C=C/c2cc(OCOC)cc(OCOC)c2)cc1
- fold change (FC) [1]: 0.4
- fold change (FC) [2]: 0.5

SMILES: Oc1ccc(/C=C/c2ccc(O)c(O)c2)cc1
- fold change (FC) [1]: -0.3
- fold change (FC) [2]: 0.4

SMILES: Oc1cc(O)cc(/C=C/c2cccc3ccccc23)c1
- fold change (FC) [1]: 1.1
- fold change (FC) [2]: 0.3

SMILES: COc1ccc(/C=C/c2cc(O)cc(O)c2)cc1OC [RHAPONTIGENIN]
- fold change (FC) [1]: 0.4

SMILES: Oc1cc(O)cc(/C=C/c2cc(O)c(O)c(O)c2)c1
- fold change (FC) [1]: 0.4
- fold change (FC) [2]: 0.3

SMILES: Oc1cc(O)cc(/C=C/c2cc(Br)c(O)c(Br)c2)c1
- fold change (FC) [1]: 0.8
- fold change (FC) [2]: 0.3

SMILES: Oc1ccccc1/C=C/c1ccccc1
- fold change (FC) [1]: 1.1
- pIC50 [3]: < 4.52
- pIC50 [4]: 5.66 to 5.77
- inhibition [5]: -5%
- fold change (FC) [2]: 0.6
- pEC50 [6]: < 5.00
- inhibition [7]: -1.9%
- inhibition [8]: -9.5%

SMILES: COc1ccc(NC(=O)c2cc(O)cc(O)c2)cc1
- fold change (FC) [1]: -0.4
- pIC50 [3]: < 4.52
- inhibition [5]: -8.2%
- fold change (FC) [2]: 0.3
- pEC50 [6]: < 4.52
- inhibition [7]: -5.9%
- inhibition [8]: 11.8%

SMILES: CC(=O)Oc1ccc(/C=C/c2cc(OC(C)=O)cc(OC(C)=O)c2)cc1 [TRIACETYLRESVERATROL]
- fold change (FC) [1]: 0.5
- fold change (FC) [2]: 0.5

SMILES: COc1cc(/C=C/c2ccccc2)cc(OC)c1 [3,5-O-DIMETHYLPINOSYLVIN]
- fold change (FC) [1]: 0.5
- fold change (FC) [2]: 0.6

SMILES: CCOc1ccc(/C=C/c2cc(OCC)cc(OCC)c2)cc1
- fold change (FC) [1]: 0.4
- fold change (FC) [2]: 0.4

SMILES: CCOc1ccc(/C=C/c2cc(O)cc(O)c2)cc1
- fold change (FC) [1]: -0.2
- fold change (FC) [2]: 0.3

SMILES: Clc1ccc(/C=C/c2cc(Cl)cc(Cl)c2)cc1
- fold change (FC) [1]: 0.8
- pIC50 [3]: < 4.52
- inhibition [5]: 7.2%
- fold change (FC) [2]: 0.3
- pEC50 [6]: < 4.52
- inhibition [7]: 3%
- inhibition [8]: 20.6%

SMILES: C=CCN=C=S [ALLYL ISOTHIOCYANATE]
- Activity [9]: Active

SMILES: Oc1cc(O)cc(/C=C/c2ccccc2)c1 [PINOSYLVIN]
- fold change (FC) [1]: -0.1
- fold change (FC) [2]: 0.4

SMILES: O=C(Nc1ccc(O)cc1)c1cc(O)cc(O)c1
- fold change (FC) [1]: -0.6
- fold change (FC) [2]: 0.3

SMILES: COc1cc(CNC(=O)CCCC/C=C/C(C)C)ccc1O [CAPSAICIN]
- Activity [10]: Active

SMILES: Oc1ccc(-c2cc(O)cc(O)c2)cc1
- fold change (FC) [1]: 0.8
- fold change (FC) [2]: 0.5

SMILES: Oc1ccc(/C=C/c2cc(O)cc(O)c2)cc1 [RESVERATROL]
- pIC50 [11]: 6.12
- pIC50 [3]: < 4.52
- inhibition [5]: 2.5%
- fold change (FC) [2]: 0.4
- pEC50 [6]: < 4.52
- inhibition [7]: -3.8%
- inhibition [8]: 37.5%

SMILES: Clc1ccc(/C=C/c2ccccc2)cc1
- fold change (FC) [1]: -0.2
- fold change (FC) [2]: 0.3

SMILES: Oc1cc(O)cc(/C=C/c2ccc(O)c(O)c2)c1 [PICEATANNOL]
- fold change (FC) [1]: 0
- fold change (FC) [2]: 0.3

SMILES: Oc1cc(O)cc(/C=C/c2ccc(OCC3CCCCC3)cc2)c1
- fold change (FC) [1]: -0.1
- fold change (FC) [2]: 0.4

SMILES: COc1ccc(/C=C/c2cc(OC)cc(OC)c2)cc1 [TRISMETHOXYRESVERATROL]
- fold change (FC) [1]: 0.3
- fold change (FC) [2]: 0.3

SMILES: Oc1cc(O)cc(/C=C/c2ccc(Cl)cc2)c1
- fold change (FC) [1]: 0.5
- pIC50 [3]: < 4.52
- inhibition [5]: 5.6%
- fold change (FC) [2]: 0.3
- pEC50 [6]: < 4.52
- inhibition [7]: 6.1%
- inhibition [8]: 18.6%

SMILES: CCCOc1ccc(/C=C/c2cc(OCCC)cc(OCCC)c2)cc1
- fold change (FC) [1]: -0.1
- fold change (FC) [2]: 0.3

SMILES: Oc1cccc(/C=C/c2cc(O)cc(O)c2)c1
- fold change (FC) [1]: 0.8
- pIC50 [3]: < 4.52
- fold change (FC) [2]: 0.4
- pEC50 [6]: < 4.52
- inhibition [8]: 1.4%

SMILES: Oc1ccc(/C=C/c2ccccc2)cc1 [(E)-4-STYRYLPHENOL]
- fold change (FC) [1]: 0.1
- fold change (FC) [2]: 0.4

SMILES: Oc1ccc(/C=C/c2cc(Br)c(O)c(Br)c2)cc1
- Activity [12]: Dose-dependent effect
- Activity [13]: Dose-dependent effect
- fold change (FC) [1]: 1.4
- Activity [14]: Not Active
- pIC50 [3]: 4.79
- Activity (HEK293): Non-Toxic
- Activity [15]: Active
- Activity (Rattus norvegicus [16]): Non-Toxic
- Activity [17]: Active
- inhibition [5]: 37.3%
- fold change (FC) [2]: 0.5
- Activity (Rattus norvegicus [18]): Active
- pEC50 [6]: < 5.00
- inhibition [7]: 14%
- inhibition [8]: 66.7%

SMILES: COc1cc(O)cc(/C=C/c2ccccc2)c1 [PINOSYLVIN METHYL ETHER]
- fold change (FC) [1]: 0.6
- fold change (FC) [2]: 0.7

SMILES: CCCCCCOc1ccc(/C=C/c2cc(O)cc(O)c2)cc1
- fold change (FC) [1]: 0.1
- fold change (FC) [2]: 0.5

SMILES: Oc1cc(O)cc(/C=C/c2ccc3c(c2)OCO3)c1
- fold change (FC) [1]: 0.6
- fold change (FC) [2]: 0.3

SMILES: COc1ccccc1/C=C/c1ccccc1
- fold change (FC) [1]: 0.3
- pIC50 [4]: 5.66 to 5.77
- fold change (FC) [2]: 0.4

SMILES: COc1ccc(/C=C/c2cc(O)cc(O)c2)cc1 [RESVERATROL 4'-METHYL ETHER]
- fold change (FC) [1]: 0.3
- fold change (FC) [2]: 0.3

SMILES: Oc1ccc(CCc2cc(O)cc(O)c2)cc1 [DIHYDRORESVERATROL]
- fold change (FC) [1]: 1.2
- pIC50 [3]: < 4.52
- inhibition [5]: 1.2%
- fold change (FC) [2]: 0.4
- pEC50 [6]: < 4.52

SMILES: Oc1cc(O)cc(/C=C/c2ccc(OCc3ccccc3)cc2)c1
- fold change (FC) [1]: 0.7
- fold change (FC) [2]: 0.3

SMILES: CCCOc1ccc(/C=C/c2cc(O)cc(O)c2)cc1
- fold change (FC) [1]: 0.1
- fold change (FC) [2]: 0.3

SMILES: Oc1cc(O)cc(/C=C/C2CCCCC2)c1
- fold change (FC) [1]: 0.5
- fold change (FC) [2]: 0.3

SMILES: Clc1cc(Cl)cc(/C=C/c2ccccc2)c1
- fold change (FC) [1]: 0.7
- pIC50 [3]: < 4.52
- inhibition [5]: 6.2%
- fold change (FC) [2]: 0.3
- pEC50 [6]: < 4.52
- inhibition [8]: 8.4%

SMILES: Oc1cc(O)cc(/C=C/c2ccccc2O)c1
- fold change (FC) [1]: 0.6
- fold change (FC) [2]: 0.4

SMILES: CC(C)(C)/C=C/c1cc(O)cc(O)c1
- fold change (FC) [1]: 0.8
- fold change (FC) [2]: 0.3
